44 compounds from patent US10246439B2, “Apoptosis signal-regulating kinase 1 inhibitors and methods of use thereof” (ENANTA PHARMACEUTICALS, INC., priority 2017, dated 2019) can be followed below.

As usually defined, the IC50 is the midpoint of a concentration-inhibition curve. Read a high IC50 as weaker potency in that assay.

The target of the test is T1, ASK1 (Homo sapiens, UniProt Q99683).
T1 construct: purchased Thermofisher PV4011
T1 sequence (Q99683 1-1374): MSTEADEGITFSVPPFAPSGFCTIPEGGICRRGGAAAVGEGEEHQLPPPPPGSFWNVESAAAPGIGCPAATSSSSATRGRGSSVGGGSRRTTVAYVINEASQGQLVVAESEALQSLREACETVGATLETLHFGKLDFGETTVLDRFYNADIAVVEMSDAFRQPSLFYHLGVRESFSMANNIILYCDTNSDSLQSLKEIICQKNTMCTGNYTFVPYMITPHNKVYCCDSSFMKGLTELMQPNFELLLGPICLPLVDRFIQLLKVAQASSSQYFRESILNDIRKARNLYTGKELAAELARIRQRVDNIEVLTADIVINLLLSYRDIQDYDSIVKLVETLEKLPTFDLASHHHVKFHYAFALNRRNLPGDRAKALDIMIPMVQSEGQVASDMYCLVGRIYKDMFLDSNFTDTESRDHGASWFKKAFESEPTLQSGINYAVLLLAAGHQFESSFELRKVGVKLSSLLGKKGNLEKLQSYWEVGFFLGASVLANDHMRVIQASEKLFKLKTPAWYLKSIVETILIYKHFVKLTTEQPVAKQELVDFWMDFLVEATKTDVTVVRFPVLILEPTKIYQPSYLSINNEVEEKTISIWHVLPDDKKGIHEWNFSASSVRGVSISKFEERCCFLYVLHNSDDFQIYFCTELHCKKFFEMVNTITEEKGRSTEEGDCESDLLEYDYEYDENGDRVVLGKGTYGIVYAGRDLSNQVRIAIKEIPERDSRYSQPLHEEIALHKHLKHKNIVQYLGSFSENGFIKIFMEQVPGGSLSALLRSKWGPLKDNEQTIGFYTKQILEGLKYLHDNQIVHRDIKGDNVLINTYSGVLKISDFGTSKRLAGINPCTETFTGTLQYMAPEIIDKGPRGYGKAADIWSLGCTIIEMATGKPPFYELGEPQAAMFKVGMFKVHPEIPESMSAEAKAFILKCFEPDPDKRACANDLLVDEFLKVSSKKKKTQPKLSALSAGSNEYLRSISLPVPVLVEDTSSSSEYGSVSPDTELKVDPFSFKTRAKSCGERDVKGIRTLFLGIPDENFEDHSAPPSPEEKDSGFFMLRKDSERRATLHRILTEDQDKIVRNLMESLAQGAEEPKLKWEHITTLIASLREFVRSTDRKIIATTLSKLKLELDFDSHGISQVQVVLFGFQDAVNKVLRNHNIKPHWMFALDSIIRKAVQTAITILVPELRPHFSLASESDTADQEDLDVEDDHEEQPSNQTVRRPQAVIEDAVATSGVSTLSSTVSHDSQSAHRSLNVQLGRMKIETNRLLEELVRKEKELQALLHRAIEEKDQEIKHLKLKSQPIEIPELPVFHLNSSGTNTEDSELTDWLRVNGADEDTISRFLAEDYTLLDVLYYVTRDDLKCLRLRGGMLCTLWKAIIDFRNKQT
Briefly: HTRF KinEASE-STK TR-FRET kinase assay, inhibition of ASK1. Format: biochemical. As to conditions: 5 nM ASK1, 1 uM STK3 peptide substrate, 100 uM ATP. As for the experimental part: ASK1 was purchased from Thermofisher (Catalogue # PV4011), ATP was purchased from Sigma (Catalogue # A7699), HTRF® KinEASE™ Assay System was obtained from Cisbio (Bedford, Mass.). ½ Area plate was purchased from Perkin Elmer (Catalogue # #6005560). HTRF® KinEASE™-STK is a generic method for measuring serine/threonine kinase activities using a time-resolved fluorescence resonance energy transfer (TR-FRET) immunoassay. The IC50 value for each compound was determined in the presence of compound (various concentration from 0 to 10 μM) and a fixed amount of ATP and peptide substrates. The test compound, 1 uM STK3 peptide substrate, and 5 nM of ASK1 kinase are incubated with kinase reaction buffer containing 50 mM HEPES pH 7.5, 0.01% BRIJ-35, 10 mM MgCl2, and 1 mM EGTA for 30 minutes. 100 uM ATP is added to start kinase reaction and incubated for 3 hours. The STK3-antibody labeled with Eu^3+-Cryptate and 125 nM streptavidin-XL665 are mixed in a single addition with stop reagents provided by the Cisbio kit used to stop the kinase reaction. Fluorescence is detected using an Envision Multilabeled 2014 reader from PerkinElmer. The Fluorescence is measured at 615 nm (Cryptate) and 665 nm (XL665) and a ratio of 665 nm/615 nm is calculated for each well. The resulting TR-FRET is proportional to the phosphorylation level. Staurosporine was used as the positive control. IC50 was determined by XLfit 5.3.

As for `CC(C)n1cnnc1-c1cccc(NC(=O)c2ccc3ncn(C)c3c2)n1` [Example 1, N-(6-(4-isopropyl-4H-1,2,4-triazol-3-yl)pyridin-2-yl)-1-methyl-1H-benzo[d]imidazole-6-carboxamide], the IC50 was in the range of 100 to 1000 nM.

The compound `CC(C)n1cnnc1-c1cccc(NC(=O)c2ccc3ncsc3c2)n1` [Example 2, N-(6-(4-isopropyl-4H-1,2,4-triazol-3-yl)pyridin-2-yl)benzo[d]thiazole-6-carboxamide] gave an IC50 of 100 to 1000 nM.

Regarding `CC(C)n1nnnc1-c1cccc(NC(=O)c2cc3sc(N4CCN(C(C)(C)C)CC4)nc3cc2F)n1` [Example 3, 2-(4-(tert-butyl)piperazin-1-yl)-5-fluoro-N-(6-(1-isopropyl-1H-tetrazol-5-yl)pyridin-2-yl)benzo[d]thiazole-6-carboxamide], the IC50 is above 1000 nM.

`CC(C)n1nnnc1-c1cccc(NC(=O)c2cc3sc(N4CCCCC4)nc3cc2F)n1` [Example 4] registered an IC50 above 1000 nM.

In turn, `CC(C)n1nnnc1-c1cccc(NC(=O)c2cc3sc(N(C)C)nc3cc2F)n1` [Example 5] displayed an IC50 of 10 to 100 nM.

As for `CC(C)n1cnnc1-c1cccc(NC(=O)c2cc3sc(NC4CC4)nc3cc2F)n1` [Example 6, 2-(cyclopropylamino)-5-fluoro-N-(6-(4-isopropyl-4H-1,2,4-triazol-3-yl)pyridin-2-yl)benzo[d]thiazole-6-carboxamide], the half-maximal inhibitory concentration (IC50) lay in the range of 1 to 10 nM.

`CC(C)n1cnnc1-c1cccc(NC(=O)c2cc3sc(C4CC4)nc3cc2F)n1` [Example 7, 2-cyclopropyl-5-fluoro-N-(6-(4-isopropyl-4H-1,2,4-triazol-3-yl)pyridin-2-yl)benzo[d]thiazole-6-carboxamide] showed an IC50 of 10 to 100 nM.

`CC(C)n1cnnc1-c1cccc(NC(=O)c2cc3sc(N(C)C4CCCCC4)nc3cc2F)n1` [Example 8] yielded an IC50 of 1 to 10 nM.

Turning to `CCCCN(C)c1nc2cc(F)c(C(=O)Nc3cccc(-c4nncn4C(C)C)n3)cc2s1` [Example 9], the IC50 was 1 to 10 nM.

Compound `CC(C)n1cnnc1-c1cccc(NC(=O)c2cc3sc(N(C)C4CC4)nc3cc2F)n1` [Example 10] gave a 50% inhibitory concentration (IC50) of 1 to 10 nM.

`CC(C)n1cnnc1-c1cccc(NC(=O)c2cc3sc(N(C)CC4CC4)nc3cc2F)n1` [Example 11] registered an IC50 of 1 to 10 nM.

`CC(C)n1cnnc1-c1cccc(NC(=O)c2cc3sc(N4CCN(C5CC5)CC4)nc3cc2F)n1` [Example 12]: the half-inhibitory concentration (IC50) is 1 to 10 nM.

Take `CCN(CC)c1nc2cc(F)c(C(=O)Nc3cccc(-c4nncn4C(C)C)n3)cc2s1` [Example 13]: the 50% inhibitory concentration (IC50) is 1 to 10 nM.

For `CC(C)n1cnnc1-c1cccc(NC(=O)c2cc3sc(N(C)C)nc3cc2F)n1` [Example 14], the IC50 lay in the range of 1 to 10 nM.

Take `CC(C)n1cnnc1-c1cccc(NC(=O)c2cc3sc(N4CCN(C(C)(C)C)CC4)nc3cc2F)n1` [Example 15]: the IC50 was in the range of 10 to 100 nM.

For the compound `CC(C)n1cnnc1-c1cccc(NC(=O)c2cc3sc(N4CCOCC4)nc3cc2F)n1` [Example 16], the IC50 is 1 to 10 nM.

As for `CC(C)n1cnnc1-c1cccc(NC(=O)c2ccc3nc(N4CC5CCC(C4)O5)sc3c2)n1` [Example 17], the IC50 was 10 to 100 nM.

For the compound `CC(C)n1cnnc1-c1cccc(NC(=O)c2ccc3nc(N4CC5(COC5)C4)sc3c2)n1` [Example 18], the half-inhibitory concentration (IC50) is 10 to 100 nM.

Take `CC(C)n1cnnc1-c1cccc(NC(=O)c2ccc3nc(N4CCC(F)(F)CC4)sc3c2)n1` [Example 19]: the IC50 fell in the range of 10 to 100 nM.

Compound `CC(C)n1cnnc1-c1cccc(NC(=O)c2ccc3nc(N4CCCC4)sc3c2)n1` [Example 20] gave an IC50 of 100 to 1000 nM.

With `CC(C)n1cnnc1-c1cccc(NC(=O)c2ccc3nc(N4CCC4)sc3c2)n1` [Example 21], the IC50 is 100 to 1000 nM.

Compound `CC(C)n1cnnc1-c1cccc(NC(=O)c2ccc3nc(-c4ccccc4)sc3c2)n1` [Example 22] returned an IC50 of 100 to 1000 nM.

Compound `CC(C)n1cnnc1-c1cccc(NC(=O)c2ccc3nc(N(C)C)sc3c2)n1` [Example 23] showed an IC50 of 10 to 100 nM.

As to `CC(C)n1cnnc1-c1cccc(NC(=O)c2ccc3nc(NC4CCCCC4)sc3c2)n1` [Example 24], the IC50 is 10 to 100 nM.

`CC(C)n1cnnc1-c1cccc(NC(=O)c2ccc3nc(N4CCC(C(C)(C)C)CC4)sc3c2)n1` [Example 25] returned an IC50 of 100 to 1000 nM.

Regarding `CC(C)n1cnnc1-c1cccc(NC(=O)c2cc3sc(NC4CCCCC4)nc3cc2F)n1` [Example 26], the IC50 was 1 to 10 nM.

With `CCCCNc1nc2cc(F)c(C(=O)Nc3cccc(-c4nncn4C(C)C)n3)cc2s1` [Example 27], the concentration for half-maximal inhibition (IC50) lay in the range of 1 to 10 nM.

As for `CC(C)n1cnnc1-c1cccc(NC(=O)c2cc3sc(N4CCC4)nc3cc2F)n1` [Example 28], the IC50 is 1 to 10 nM.

Compound `CC(C)n1cnnc1-c1cccc(NC(=O)c2cc3sc(N4CCC(C(C)(C)C)CC4)nc3cc2F)n1` [Example 29] gave an IC50 of 10 to 100 nM.

In turn, `CC(C)n1cnnc1-c1cccc(NC(=O)c2cc3sc(N4CCCCC4)nc3cc2F)n1` [Example 30, 5-fluoro-N-(6-(4-isopropyl-4H-1,2,4-triazol-3-yl)pyridin-2-yl)-2-(piperidin-1-yl)benzo[d]thiazole-6-carboxamide] returned an IC50 of 1 to 10 nM.

Regarding `CC(C)n1nnnc1-c1cccc(NC(=O)c2cc3sc(C4CC4)nc3cc2F)n1` [Example 31], the half-maximal inhibitory concentration (IC50) was above 1000 nM.

For the compound `CC(C)n1nnnc1-c1cccc(NC(=O)c2cc3sc(N(C)C4CC4)nc3cc2F)n1` [Example 32], the half-inhibitory concentration (IC50) was above 1000 nM.

Turning to `CNc1nc2cc(F)c(C(=O)Nc3cccc(-c4nnnn4C(C)C)n3)cc2s1` [Example 33], the IC50 was above 1000 nM.

For the compound `CC(C)n1nnnc1-c1cccc(NC(=O)c2cc3sc(NC4CCCCC4)nc3cc2F)n1` [Example 34], the IC50 is above 1000 nM.

Compound `CCN(CC)c1nc2cc(F)c(C(=O)Nc3cccc(-c4nnnn4C(C)C)n3)cc2s1` [Example 35] showed an IC50 above 1000 nM.

`CC(C)n1nnnc1-c1cccc(NC(=O)c2cc3sc(C4CCC4)nc3cc2F)n1` [Example 36] returned an IC50 of 100 to 1000 nM.

For `CC(C)n1cnnc1-c1cccc(NC(=O)c2cc3sc(C4CCC4)nc3cc2F)n1` [Example 37], the IC50 is 10 to 100 nM.

On to `CC(C)n1nnnc1-c1cccc(NC(=O)c2cc3sc(NC4CC4)nc3cc2F)n1` [Example 38], for which the IC50 was above 1000 nM.

Consider `CC(C)n1nnnc1-c1cccc(NC(=O)c2cc3sc(N(C)CC4CC4)nc3cc2F)n1` [Example 39], for which the IC50 is above 1000 nM.

The compound `CCCCNc1nc2cc(F)c(C(=O)Nc3cccc(-c4nnnn4C(C)C)n3)cc2s1` [Example 40] yielded an IC50 above 1000 nM.

With `CC(C)n1nnnc1-c1cccc(NC(=O)c2cc3sc(N4CCC(C(C)(C)C)CC4)nc3cc2F)n1` [Example 41], the IC50 was above 1000 nM.

As for `CC(C)n1nnnc1-c1cccc(NC(=O)c2cc3sc(N4CCN(C5CC5)CC4)nc3cc2F)n1` [Example 42], the IC50 is above 1000 nM.

With `CCCCN(C)c1nc2cc(F)c(C(=O)Nc3cccc(-c4nnnn4C(C)C)n3)cc2s1` [Example 43], the 50% inhibitory concentration (IC50) is above 1000 nM.

For `CC(C)n1nnnc1-c1cccc(NC(=O)c2cc3sc(N(C)C4CCCCC4)nc3cc2F)n1` [Example 44], the IC50 is above 1000 nM.
